Laboratory results taken from ChEMBL document CHEMBL1268927, “Antitumor activity of 3,4-dihydroquinazoline dihydrochloride in A549 xenograft nude mice” (Bioorg Med Chem Lett, 2010).

Experiments:
[1] = Cytotoxicity against human A172 cells by MTT assay; format: functional, cell-based, A 172
[2] = test system: SK-OV-3; experiment: Cytotoxicity against human SKOV3 cells by MTT assay; format: functional, cell-based
[3] = test system: MDA-MB-231; experiment: Cytotoxicity against human MDA-MB-231 cells by MTT assay; format: functional, cell-based
[4] = test system: HeLa; experiment: Cytotoxicity against human HeLa cells by MTT assay; format: functional, cell-based
[5] = test system: A549; experiment: Cytotoxicity against human A549 cells by MTT assay; format: functional, cell-based
[6] = test system: SK-BR-3; experiment: Cytotoxicity against human SKBR3 cells by MTT assay; format: functional, cell-based
[7] = test system: LNCaP; experiment: Cytotoxicity against human LNCAP cells by MTT assay; format: functional, cell-based
[8] = Oral bioavailability in Sprague-Dawley rat at 5 mg/kg; format: ADME, organism-based; conditions: in vivo
[9] = Mean residence time in Sprague-Dawley rat at 10 mg/kg, iv; format: ADME, organism-based; set-up: dose 10 mg/kg, route intravenous; conditions: in vivo
[10] = Cmax in Sprague-Dawley rat at 5 mg/kg, iv; format: ADME, organism-based; set-up: dose 5 mg/kg, route intravenous; conditions: in vivo
[11] = test system: Mus musculus; experiment: Toxicity in BALB/c mouse xenografted with human A549 cells assessed as decrease in body weight at 2 mg/kg, iv administered once per 2 days for 4 weeks measured on day 8; format: organism-based; set-up: dose 2 mg/kg, route intravenous; conditions: in vivo
[12] = Toxicity in po dosed ICR mouse administered as single dose; format: organism-based; conditions: in vivo
[13] = Toxicity in ICR mouse assessed as mortality rate at 250 mg/kg, po administered as single dose; format: organism-based; set-up: dose 250 mg/kg, route oral; conditions: in vivo, read-out: Activity
[14] = test system: A549; experiment: Antitumor activity against human A549 cells xenografted in BALB/c mouse assessed as inhibition of tumor weight at 1 mg/kg, iv QD for 28 days measured post last dose; format: functional; conditions: A549, 672 h
[15] = test system: Mus musculus; experiment: Toxicity in ICR mouse assessed as occurrence of erosion at 45 mg/kg, iv administered as single dose measured up to 10 mins; format: organism-based; set-up: dose 45 mg/kg, route intravenous; conditions: in vivo
[16] = AUC in Sprague-Dawley rat at 5 mg/kg, iv; format: ADME, organism-based; set-up: dose 5 mg/kg, route intravenous; conditions: plasma
[17] = test system: A549; experiment: Antitumor activity against human A549 cells xenografted in BALB/c mouse assessed as inhibition of tumor weight at 2 mg/kg, iv QD for 28 days measured post last dose; format: functional; conditions: A549, 672 h
[18] = test system: Mus musculus; experiment: Toxicity in ICR mouse assessed as appearance of clinical signs at 250 mg/kg, po administered as single dose; format: organism-based; set-up: dose 250 mg/kg, route oral; conditions: in vivo
[19] = test system: Mus musculus; experiment: Toxicity in ICR mouse assessed as appearance of solid perineal region at 500 mg/kg, po administered as single dose; format: organism-based; set-up: dose 500 mg/kg, route oral; conditions: in vivo
[20] = Cmax in Sprague-Dawley rat at 10 mg/kg, iv; format: ADME, organism-based; set-up: dose 10 mg/kg, route intravenous; conditions: in vivo
[21] = test system: Mus musculus; experiment: Toxicity in ICR mouse assessed as occurrence of panting at 45 mg/kg, iv administered as single dose measured up to 10 mins; format: organism-based; set-up: dose 45 mg/kg, route intravenous; conditions: in vivo
[22] = Toxicity in ICR mouse assessed as mortality rate at 500 mg/kg, po administered as single dose; format: organism-based; set-up: dose 500 mg/kg, route oral; conditions: in vivo, read-out: Activity
[23] = test system: Mus musculus; experiment: Toxicity in ICR mouse assessed as appearance of clinical signs at 26.6 mg/kg, iv administered as single dose; format: organism-based; set-up: dose 26.6 mg/kg, route intravenous; conditions: in vivo
[24] = test system: Rattus norvegicus; experiment: Volume of distribution in Sprague-Dawley rat at 5 mg/kg, iv; format: ADME, organism-based; set-up: dose 5 mg/kg, route intravenous; conditions: in vivo
[25] = test system: Mus musculus; experiment: Toxicity in ICR mouse assessed as occurrence of inanimation at 45 mg/kg, iv administered as single dose measured up to 10 mins; format: organism-based; set-up: dose 45 mg/kg, route intravenous; conditions: in vivo
[26] = test system: Mus musculus; experiment: Toxicity in BALB/c mouse xenografted with human A549 cells assessed as effect on body weight at 1 to 2 mg/kg, iv QD for 28 days measured post last dose; format: organism-based; set-up: dose 1-2 mg/kg, route intravenous; conditions: in vivo, 672 h
[27] = test system: Mus musculus; experiment: Toxicity in ICR mouse assessed as loss of locomotor activity at 45 mg/kg, iv administered as single dose measured up to 10 mins; format: organism-based; set-up: dose 45 mg/kg, route intravenous; conditions: in vivo
[28] = test system: Mus musculus; experiment: Toxicity in ICR mouse assessed as loss of locomotor activity at 34.6 mg/kg, iv administered as single dose; format: organism-based; set-up: dose 34.6 mg/kg, route intravenous; conditions: in vivo
[29] = test system: Rattus norvegicus; experiment: Volume of distribution in Sprague-Dawley rat at 10 mg/kg, iv; format: ADME, organism-based; set-up: dose 10 mg/kg, route intravenous; conditions: in vivo
[30] = test system: Mus musculus; experiment: Toxicity in ICR mouse assessed as appearance of solid perineal region at 1000 mg/kg, po administered as single dose; format: organism-based; set-up: dose 1000 mg/kg, route oral; conditions: in vivo
[31] = test system: Mus musculus; experiment: Toxicity in ICR mouse assessed as occurrence of diarrhea at 100 mg/kg, po administered as single dose; format: organism-based; set-up: dose 100 mg/kg, route oral; conditions: in vivo
[32] = Oral bioavailability in Sprague-Dawley rat at 10 mg/kg; format: ADME, organism-based; conditions: in vivo
[33] = test system: Mus musculus; experiment: Toxicity in ICR mouse assessed as occurrence of diarrhea at 500 mg/kg, po administered as single dose; format: organism-based; set-up: dose 500 mg/kg, route oral; conditions: in vivo
[34] = Toxicity in ICR mouse assessed as mortality rate at 26.6 mg/kg, iv administered as single dose; format: organism-based; set-up: dose 26.6 mg/kg, route intravenous; conditions: in vivo, read-out: Activity
[35] = test system: Mus musculus; experiment: Toxicity in ICR mouse assessed as occurrence of inanimation at 34.6 mg/kg, iv administered as single dose; format: organism-based; set-up: dose 34.6 mg/kg, route intravenous; conditions: in vivo
[36] = test system: Rattus norvegicus; experiment: Half life in Sprague-Dawley rat at 5 mg/kg, iv; format: ADME, organism-based; set-up: dose 5 mg/kg, route intravenous; conditions: in vivo
[37] = AUC in Sprague-Dawley rat at 10 mg/kg, iv; format: ADME, organism-based; set-up: dose 10 mg/kg, route intravenous; conditions: plasma
[38] = Toxicity in iv dosed ICR mouse administered as single dose; format: organism-based; conditions: in vivo
[39] = test system: A549; experiment: Ratio of compound to doxorubicin activity against human A549 cells xenografted in BALB/c mouse at 2 mg/kg, iv; format: functional
[40] = Toxicity in ICR mouse assessed as mortality rate at 34.6 mg/kg, iv administered as single dose; format: organism-based; set-up: dose 34.6 mg/kg, route intravenous; conditions: in vivo, read-out: Activity
[41] = Mean residence time in Sprague-Dawley rat at 5 mg/kg, iv; format: ADME, organism-based; set-up: dose 5 mg/kg, route intravenous; conditions: in vivo
[42] = test system: Rattus norvegicus; experiment: Half life in Sprague-Dawley rat at 10 mg/kg, iv; format: ADME, organism-based; set-up: dose 10 mg/kg, route intravenous; conditions: in vivo
[43] = test system: Mus musculus; experiment: Toxicity in ICR mouse assessed as occurrence of panting at 34.6 mg/kg, iv administered as single dose; format: organism-based; set-up: dose 34.6 mg/kg, route intravenous; conditions: in vivo
[44] = Toxicity in ICR mouse assessed as mortality rate at 1000 mg/kg, po administered as single dose; format: organism-based; set-up: dose 1000 mg/kg, route oral; conditions: in vivo, read-out: Activity
[45] = test system: Mus musculus; experiment: Toxicity in ICR mouse assessed as occurrence of erosion at 34.6 mg/kg, iv administered as single dose; format: organism-based; set-up: dose 34.6 mg/kg, route intravenous; conditions: in vivo
[46] = test system: A549; experiment: Antitumor activity against human A549 cells xenografted in iv dosed BALB/c mouse assessed as inhibition of tumor weight administered QD for 28 days measured post last dose; format: functional, organism-based
[47] = test system: A549; experiment: Antitumor activity against human A549 cells xenografted in BALB/c mouse assessed as inhibition of tumor weight at 2 mg/kg, iv administered once per 2 days for 4 weeks measured post last dose; format: functional

Compound: CN(C)CCCCCN(C)C1=Nc2ccccc2C(CC(=O)NCc2ccccc2)N1c1ccc(-c2ccccc2)cc1 (centres undefined) [listing 1 of 2 here]
- IC50 ([1]; Homo sapiens, A 172): 4.83 µM
- IC50 ([2]; Homo sapiens, SK-OV-3): 5 µM
- IC50 ([3]; Homo sapiens, MDA-MB-231): 2650 nM
- IC50 ([4]; Homo sapiens, HeLa): 4.04 µM
- IC50 ([5]; Homo sapiens, A549): 5.17 µM
- IC50 ([6]; Homo sapiens, SK-BR-3): 2170 nM
- IC50 ([7]; Homo sapiens, LNCaP): 4.7 µM

Compound: CN(C)CCCCCN(C)C1=Nc2ccccc2C(CC(=O)NCc2ccccc2)N1c1ccc(-c2ccccc2)cc1.Cl.Cl (centres undefined)
- bioavailability [8]: 98.3%
- MRT [9]: 7.19 h
- Cmax [10]: 460 ng/mL
- Activity [11]: Toxic
- IC50 ([1]; a 172): 4.61 µM
- LD50 [12]: 693 mg/kg
- mortality [13]: 0%
- inhibition in vivo at 1 mg/kg [14]: 29%
- IC50 ([2]; sk-ov-3): 5.22 µM
- Activity [15]: Toxic
- AUC [16]: 128 µg·h/mL
- inhibition in vivo at 2 mg/kg [17]: 49%
- IC50 ([3]; mda-mb-231): 1640 nM
- Activity [18]: Non-toxic
- Activity [19]: Toxic
- Cmax [20]: 1030 ng/mL
- Activity [21]: Toxic
- mortality [22]: 40%
- Activity [23]: Toxic
- IC50 ([4]; hela): 3.11 µM
- Vd [24]: 0.33 L/kg
- Activity [25]: Toxic
- Activity [26]: Non-toxic
- Activity [27]: Toxic
- Activity [28]: Toxic
- Vd [29]: 0.61 L/kg
- Activity [30]: Toxic
- Activity [31]: Toxic
- bioavailability [32]: 70.1%
- Activity [33]: Toxic
- mortality [34]: 0%
- Activity [35]: Toxic
- IC50 ([5]; a549): 5 µM
- t1/2 [36]: 522.96 min
- AUC [37]: 279 µg·h/mL
- LD50 [38]: 40 mg/kg
- Ratio [39]: 1.6
- IC50 ([6]; sk-br-3): 1830 nM
- mortality [40]: 20%
- MRT [41]: 5.09 h
- t1/2 [42]: 1192.29 min
- Activity [43]: Toxic
- mortality [44]: 80%
- Activity [45]: Toxic
- IC50 ([7]; lncap): 5.19 µM

Compound: CN(C)CCCCCN(C)C1=Nc2ccccc2C(CC(=O)NCc2ccccc2)N1c1ccc(-c2ccccc2)cc1 (centres undefined) [listing 2 of 2 here]
- inhibition [46]: Dose-dependent effect

Compound: COc1cccc2c1C(=O)c1c(O)c3c(c(O)c1C2=O)C[C@@](O)(C(=O)CO)C[C@@H]3O[C@H]1C[C@H](N)[C@H](O)[C@H](C)O1 [DOXORUBICIN]
- inhibition in vivo at 2 mg/kg [47]: 30%
